Results as given in publication PMC7072645, “Targeting the Class A Carbapenemase GES-5 via Virtual Screening” (Biomolecules, 2020).

Legend:
[1] = target: T1, GES-5 (Klebsiella pneumoniae, UniProt Q09HD0); format: biochemical; conditions: reporter substrate, purified recombinant GES-5
T1 construct: made in house; host or cells: E. coli BL21(DE3)
Method: For protein expression, competent E. coli BL21(DE3) cells (PROMEGA, Madison, WI, USA) were transformed with recombinant plasmid blaGES-5/pet24a(+) as reported. Protein purification was performed using an Äkta Prime plus chromatograph system (GE Healthcare Life Sciences, Freiburg, Germany). GES-5 (Uniprot ID Q09HD0) was conveniently purified in a single step using a Macro-Prep High Q resin (Bio-Rad, Hercules, CA, USA.).

[2] = target: T1, GES-5; test: GES-5 hydrolysis inhibition, nitrocefin spectrophotometric assay; format: biochemical; conditions: for LE vs. GES-5: ligand efficiency from Ki vs GES-5
Method: (§1) Reactions were monitored using a Jasco V730 spectrophotometer. […] In order to perform spectrophotometric tests, compounds were dissolved in dimethyl sulfoxide (DMSO) to a concentration of 25 mM and stored at −20 °C. […] The reaction was typically initiated by adding GES-5 (2 nM final concentration), previously dialyzed in the reaction buffer. […] For KPC-2 experiments, the protein was obtained, and assays were conducted as previously reported.

[3] = target: KPC-2 (Klebsiella pneumoniae, UniProt Q9F663); test: KPC-2 inhibition assay, conducted as previously reported; format: biochemical; conditions: for % inhibition at [1mM] vs KPC-2: 1 mM inhibitor; for Ki: calculated from IC50 by Cheng-Prusoff; for LE vs. KPC-2: ligand efficiency from Ki vs KPC-2
KPC-2, sequence (Q9F663 25-293, looked up, species assumed): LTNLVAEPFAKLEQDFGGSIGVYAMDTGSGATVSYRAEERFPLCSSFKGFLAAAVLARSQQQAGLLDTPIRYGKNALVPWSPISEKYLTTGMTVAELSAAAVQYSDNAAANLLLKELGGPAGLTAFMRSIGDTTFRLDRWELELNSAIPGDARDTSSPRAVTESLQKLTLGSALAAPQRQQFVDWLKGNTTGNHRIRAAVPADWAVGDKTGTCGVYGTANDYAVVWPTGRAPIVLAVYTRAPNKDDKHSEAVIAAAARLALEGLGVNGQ
Method: as §1

[4] = tested on: O=C(Cc1cccs1)N[C@@H]1C(=O)N2C(C(=O)O)=C(/C=C/c3ccc([N+](=O)[O-])cc3[N+](=O)[O-])CS[C@H]12; test: purified protein, by the assay type; conditions: other: reporter substrate, purified recombinant GES-5

T1 sequence (Q09HD0 19-287): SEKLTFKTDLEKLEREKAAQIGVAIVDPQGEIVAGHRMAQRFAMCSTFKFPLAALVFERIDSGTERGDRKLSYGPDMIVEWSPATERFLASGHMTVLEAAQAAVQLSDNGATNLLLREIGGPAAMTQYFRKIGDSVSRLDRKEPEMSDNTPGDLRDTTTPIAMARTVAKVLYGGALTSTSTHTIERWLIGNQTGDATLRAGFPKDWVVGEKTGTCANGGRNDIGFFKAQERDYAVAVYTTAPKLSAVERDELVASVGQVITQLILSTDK

| Molecule | Km [1] | Ki [2] | LE vs. GES-5 [2] | % inhibition at [1mM] vs KPC-2 [3] | Ki [3] | LE vs. KPC-2 [3] | % inhibition at [1mM] vs GES-5 [2] | Km [4] |
| --- | --- | --- | --- | --- | --- | --- | --- | --- |
| O=C(Cc1cccs1)N[C@@H]1C(=O)N2C(C(=O)O)=C(CSc3ccc([N+](=O)[O-])c(C(=O)O)c3)CS[C@H]12 [CENTA] | 524 µM | – | – | – | – | – | – | – |
| COc1cc(Br)c(-c2nnn[nH]2)cc1OC [Compound 8] | – | 890 µM | 0.89 (0.27) kcal/mol/non-hydrogen atom | at least 30% | 350 µM | 0.30 kcal/mol/non-hydrogen atom | – | – |
| O=C(O)c1cccc(S(=O)(=O)Nc2cccnc2)c1 [Compound 12] | – | 1010 µM | 1.01 (0.22) kcal/mol/non-hydrogen atom | at least 30% | 1380 µM | 0.21 kcal/mol/non-hydrogen atom | – | – |
| Nc1nc(=O)n(CC(O)C(=O)O)cc1Br (centres unmarked) [Compound 13] | – | 810 µM | – | at least 30% | 280 µM | 0.33 kcal/mol/non-hydrogen atom | – | – |
| COc1ccc2[nH]c(C(=O)O)nc2c1 [Compound 43] | – | 660 µM | – | – | 450 µM | 0.33 kcal/mol/non-hydrogen atom | 41% | – |
| GES-5 (Klebsiella pneumoniae) | – | – | – | – | – | – | – | 208 µM |
